Measured values taken from patent US10294202B2, “Pyrrolidinones as herbicides” (FMC Corporation, priority 2013, dated 2019).

Key:
field violet = test: Test D pre-/postemergence herbicide test; type: in vivo, Viola arvensis; conditions: for Plant response rating: Field Violet, scale 0 to 100; for Plant response rating, Field Violet: scale 0 to 100 (0 no effect, 100 complete control)
Source text: (§1) Seeds of plant species selected from bluegrass (annual bluegrass, Poa annua), blackgrass (Alopecurus myosuroides), canarygrass (littleseed canarygrass, Phalaris minor), chickweed (common chickweed, Stellaria media), galium (catchweed bedstraw, Galium aparine), bromegrass, downy (downy bromegrass, Bromus tectorum), field poppy (Papaver rhoeas), field violet (Viola arvensis), foxtail, green (green foxtail, Setaria viridis), deadnettle (henbit deadnettle, Lamium amplexicaule), ryegrass, Italian (Italian ryegrass, Lolium multiflorum), kochia (Kochia scoparia), lambsquarters (Chenopodium album), oilseed rape (Brassica napus), pigweed (Amaranthus retroflexus), chamomile (scentless chamomile, Matricaria inodora), Russian thistle (Salsola kali), speedwell (bird's-eye speedwell, Veronica persica), barley, spring (spring barley, Hordeum vulgare), wheat, spring (spring wheat, Triticum aestivum), buckwheat, wild (wild buckwheat, Polygonum convolvulus), mustard, wild (wild mustard, Sinapis arvensis), oat, wild (wild oat, Avena fatua), radish, wild (wild radish, Raphanus raphanistrum), […]), barley, winter (winter barley, Hordeum vulgare), and wheat, winter (winter wheat, Triticum aestivum) were planted into a silt loam soil and treated preemergence with test chemicals formulated in a non-phytotoxic solvent mixture which included a surfactant. At the same time, these species were planted in pots containing Redi-Earth® planting medium (Scotts Company, 14111 Scottslawn Road, Marysville, Ohio 43041) comprising spaghnum peat moss, vermiculite, wetting agent and starter nutrients and treated with postemergence applications of the test chemicals formulated in the same manner. Plants ranged in height from 2 to 18 cm (1- to 4-leaf stage). Treated plants and controls were maintained in a controlled growth environment for 7 to 21 days after which time all species were compared to controls and visually evaluated. Plant response ratings, summarized in Table D, are based on a scale of 0 to 100 where 0 is no effect and 100 is complete control. A dash (-) response means no test result.

pigweed = test: Test D pre-/postemergence herbicide test; type: in vivo, Amaranthus retroflexus; conditions: for Plant response rating: Postemergence, Pigweed, scale 0 to 100; for Plant response rating, Pigweed: Preemergence, scale 0 to 100 (0 no effect, 100 complete control)
Source text: as §1

foxtail, green = test: Test C pre-/postemergence herbicide test; type: in vivo, Setaria viridis
Source text: Seeds of plant species selected from blackgrass (Alopecurus myosuroides), ryegrass, Italian (Italian ryegrass, Lolium multiflorum), wheat (winter wheat, Triticum aestivum), galium (catchweed bedstraw, Galium aparine), corn (Zea mays), crabgrass, large (large crabgrass, Digitaria sanguinalis), foxtail, giant (giant foxtail, Setaria faberii), johnsongrass (Sorghum halepense), lambsquarters (Chenopodium album), morningglory (Ipomoea coccinea), nutsedge, yellow (yellow nutsedge, Cyperus esculentus), pigweed (Amaranthus retroflexus), ragweed (common ragweed, Ambrosia elatior), soybean (Glycine max), barnyardgrass (Echinochloa crus-galli), oilseed rape (Brassica napus), waterhemp (common waterhemp, Amaranthus rudis), kochia (Kochia scoparia), oat, wild (wild oat, Avena fatua), surinam grass (Brachiaria decumbens), foxtail, green (green foxtail, Setaria viridis), goosegrass (Eleusine indica), bromegrass, downy (downy bromegrass, Bromus tectorum), nightshade (eastern black nightshade, Solanum ptycanthum), cocklebur (common cocklebur, Xanthium strumarium), cupgrass, woolly (woolly cupgrass, Eriochloa villosa), bermudagrass (Cynodon dactylon), sunflower, (common oilseed sunflower, Helianthus annuus), Russian thistle (Salsola kali) and velvetleaf (Abutilon theophrasti) were planted into a blend of loam soil and sand and treated preemergence with test chemicals formulated in a non-phytotoxic solvent mixture which included a surfactant. At the same time, plants selected from these crop and weed species and also barley (winter barley, Hordeum vulgare), […]), chickweed (common chickweed, Stellaria media), deadnettle (henbit deadnettle, Lamium amplexicaule), and canarygrass (littleseed canarygrass, Phalaris minor) were planted in pots containing Redi-Earth® planting medium (Scotts Company, 14111 Scottslawn Road, Marysville, Ohio 43041) comprising spaghnum peat moss, vermiculite, wetting agent and starter nutrients and treated with postemergence applications of test chemicals formulated in the same manner. Plants ranged in height from 2 to 18 cm (1- to 4-leaf stage) for postemergence treatments. Treated plants and controls were maintained in a greenhouse for 13 to 15 days, after which time all species were compared to controls and visually evaluated. Plant response ratings, summarized in Table C, are based on a scale of 0 to 100 where 0 is no effect and 100 is complete control. A dash (-) response means no test result.

[1] = Preemergence, 62 g ai/ha, scale 0 to 100
[2] = Preemergence, 125 g ai/ha, scale 0 to 100 (0 no effect, 100 complete control)
[3] = Preemergence, 31 g ai/ha, scale 0 to 100 (0 no effect, 100 complete control)

Structure (SMILES)	Plant response rating (field violet; Postemergence, 31 g ai/ha)	Plant response rating (field violet; Postemergence, 62 g ai/ha)	Plant response rating (field violet; Postemergence, 125 g ai/ha)	Plant response rating (field violet; Postemergence, 250 g ai/ha)	Plant response rating, Field Violet (field violet; Preemergence, 62 g ai/ha)	Plant response rating, Field Violet (field violet; Preemergence, 31 g ai/ha)	Plant response rating (field violet; Preemergence, 125 g ai/ha)	Plant response rating (field violet; Preemergence, 250 g ai/ha)	Plant response rating (pigweed; 31 g ai/ha)	Plant response rating (pigweed; 62 g ai/ha)	Plant response rating (pigweed; 125 g ai/ha)	Plant response rating (pigweed; 250 g ai/ha)	Plant response rating, Pigweed (pigweed; 62 g ai/ha)	Plant response rating, Pigweed (pigweed; 125 g ai/ha)	Plant response rating, Pigweed (pigweed; 31 g ai/ha)	Plant response rating, Pigweed (pigweed; 250 g ai/ha)	Plant response rating, Foxtail, Green (foxtail, green; [1])	Plant response rating, Foxtail, Green (foxtail, green; [2])	Foxtail, Green plant response rating (foxtail, green; [3])	also measured
O=C1NCC(c2ccc(F)c(F)c2)C1C(=O)Nc1ccccc1C(F)(F)F (racemic) [Compound 6]	0	20	20	25	0	0	0	0	10	10	20	20	0	0	0	0				Plant response rating (field violet; Postemergence, 16 g ai/ha): 0; Plant response rating, Field Violet (field violet; Preemergence, 16 g ai/ha): 0; Plant response rating (pigweed; 16 g ai/ha): 0; Plant response rating, Pigweed (pigweed; 16 g ai/ha): 0
O=C1NCC(c2ccc(Cl)c(Cl)c2)C1C(=O)Nc1ccccc1F (racemic) [Compound 14]																	90	90	25	Plant response rating, Foxtail, Green (foxtail, green; Preemergence, 250 g ai/ha, scale 0 to 100 (0 no effect, 100 complete control)): 95
O=C1NCC(c2ccc(F)c(C(F)(F)F)c2)C1C(=O)Nc1cccc(F)c1F (racemic) [Compound 77]					20	15	20	55					70	80	25	80				
O=C1NCC(c2ccc(C(F)(F)F)cc2)C1C(=O)Nc1cccc(F)c1F (racemic) [Compound 202]	40	30	30	30	0	0	10	15	75	75	75	80	80	90	75	90				
O=C1NCC(c2cc(F)c(F)c(F)c2)C1C(=O)Nc1cccc(F)c1F (centres unmarked) [Compound 48]																	90	90	80	Plant response rating, Foxtail, Green (foxtail, green; Postemergence, 16 g ai/ha, scale 0 to 100 (0 no effect, 100 complete control)): 0; Plant response rating, Foxtail, Green (foxtail, green; Postemergence, 31 g ai/ha, scale 0 (no effect) to 100 (complete control)): 0; Plant response rating, Foxtail, Green (foxtail, green; Postemergence, 62 g ai/ha, scale 0 to 100 (0 no effect, 100 complete control)): 0; Plant response rating, Foxtail, Green (foxtail, green; Postemergence, 125 g ai/ha, scale 0 to 100 (0 no effect, 100 complete control)): 65; Plant response rating, Foxtail, Green (foxtail, green; Preemergence, 16 g ai/ha, scale 0 to 100): 70
